Converted amounts (≈) assume the structure as drawn. Bridge positions count the residues as written; N and C are the ends. Square brackets hold non-standard residues; d marks the D form. Peptide text beside a SMILES is read from it. * marks the point of attachment. X1 = CC[C@H](C)CCCCC(=O)*; Dab = NCC[C@H](N)C(=O)O
What was measured:
S. aureus ATTC 6538 = assay: microbe, parasite or virus in culture; format: cell-based, Staphylococcus aureus; settings: S. aureus ATTC 6538; Mueller Hinton Broth, 18–20 h
Procedure: (§1) MICs were measured after 18–20 h of incubation in sterile 96-well plates (Corning Costar 3598 microtiter plates) in Mueller Hinton Broth (MHB) culture medium, (Difco, USA), according to well known in vitro protocols. Bacterial strains in Table 1 were: P. aeruginosa ATTC 9027, E. coli ATTC 8739, S. aureus ATTC 6538, and E. faecalis ATTC 29212. MICs shown in table 4 were performed by Mary Conrad at Cubist Pharmaceuticals (Lexington, MA) in non-binding surface plates.

P. aeruginosa ATTC 9027 = format: cell-based, Pseudomonas aeruginosa; settings: P. aeruginosa ATTC 9027; Mueller Hinton Broth, 18–20 h
Procedure: as §1

E. coli ATTC 8739 = format: cell-based, Escherichia coli; settings: E. coli ATTC 8739; Mueller Hinton Broth, 18–20 h
Procedure: as §1

E. coli = tested on: E. coli
Procedure: (§2) Strains of E. coli and P. aeruginosa with resistance to quinolones and carbapenems as well as multi-drug-resistant bacteria were tested.
as §1

P. aeruginosa = tested on: P. aeruginosa
Procedure: as §2, §1

E. coli (ATCC 25922) [1] = assay: Flow cytometry (PI membrane permeability, BOX membrane potential), E. coli; format: cell-based, Escherichia coli; settings: 0.5 μg/mL
Procedure: The mechanism of action at the membrane level of our best candidate was studied using flow cytometry. To assess membrane permeability, a propidium iodide (PI) probe was used[43][44]. The fluorescence conferred by this probe is generally associated with cells that have lost their membrane integrity. The effect on membrane potential was evaluated with bis-(1,3-dibutylbarbituric acid) trimethine oxonol (BOX). Membrane depolarization leads to the incorporation of this anionic dye into the cell where it binds to lipid-rich intracellular compounds, resulting in an increase in fluorescence.
(§3) An overnight culture (12 to 16 h) of S. aureus (ATCC 29213) or E. coli (ATCC 25922) in Tryptic Soy Broth (TSB) was grown at 37 °C and 400 μL were added in 50 mL of tryptone water (∼10^7 bacteria/mL). The bacterial suspension was split into aliquots of 4-5 mL and treated with the peptides (at the MIC) for different incubation times at room temperature. Cells were collected by centrifugation (10000 rpm, 20 min) and resuspended in 1 mL of filtered Ringer’s solution.
A stock solution of propidium iodide (PI, 1 mg/mL, Molecular Probes) and bis-(1,3-dibutylbarbituric acid) trimethine oxonol (BOX, 250 μM, Sigma Aldrich) was prepared in distilled water. Portions (10 μL and 2 μL, respectively) were added to aliquots of cells (100 μL of each sample in 1 mL of Ringer’s solution) to give a final concentration of 10 μg/mL of PI and 0.5 μM for BOX.
Flow cytometric measurements were performed on a Gallios multi-colour flow cytometer instrument (Beckman Coulter, Inc, Fullerton, CA) set up with the 3-lasers 10 colors standard configuration. Excitation was done using a blue (488 nm) laser. Forward scatter (FS), side scatter (SS), green fluorescence (525/40 nm) from BOX and red fluorescence (620/30 nm) emitted by PI were collected using logarithmic scales. FS was used as the discriminating parameter. The single-cell bacterial population was selected on a forward-side scatter plot. Fluorescence was presented in a dot plot of BOX vs. PI. Three regions were defined on this graph according to the controls: depolarized, permeabilized and non-affected cells. Control cells (non-stained and single stained populations) were used to define these regions. 25,000 cells defined according to their scatter parameters were counted in each sample.

E. coli (ATCC 25922) [2] = assay: Reduction of viability by plate count, E. coli; format: cell-based, Escherichia coli; settings: 0.5 μg/mL
Procedure: as §3

E. coli (ATCC 25922) [3] = assay: Transmission electron microscopy of treated E. coli; format: cell-based, Escherichia coli; settings: 120 min at 0.5 μg/mL
Procedure: An overnight culture (12 to 16 h) of S. aureus (ATCC 29213) or E. coli (ATCC 25922) in Tryptic Soy Broth (TSB) was grown at 37 °C and 500 μL were added in 50 mL of tryptone water (∼10^8 bacteria/mL). […] Cells were collected by centrifugation (10000 rpm, 20 min).
Samples were fixed with 2.5% glutaraldehyde in phosphate buffer for 2 h at 4 °C, then washed with the same buffer and post fixed with 1% osmium tetroxide in buffer containing 0.8% potassium ferricyanide at 4 °C. The samples were then dehydrated for 1 hour in acetone and infiltrated in a gradded series of Epon resin (Ted Pella Inc., USA) during 2 days, and finally embedded in fresh Epon resin and polymerised at 60 °C during 48 hours.
Ultrathin sections were obtained using a Leica Ultracut UCT ultramicrotome (Leica, Vienna) and mounted on Formvar-coated copper grids. Sections were stained with 2% aqueous uranyl acetate and lead citrate and examined in a JEM-1010 electron microscope (Jeol, Japan).

CD-1 mice = settings: reported value, no reference given; cited from earlier work
[4] = biological target: alternative NADH dehydrogenase; set-up: method as in PMID 19564154, PMID 24169795; settings: Mycobacterium smegmatis; cited from earlier work
[5] = biological target: malate:quinone oxidoreductase; set-up: method as in PMID 19564154; settings: Mycobacterium smegmatis; cited from earlier work
[6] = set-up: method as in PMID 22908162, PMID 24733472; settings: after iv administration, after 6 h; cited from earlier work
[7] = resistant to nalidixic acid, cotrimoxazole and ampicillin

CC[C@H](C)CCCCC(=O)N[C@@H](CCN)C(=O)N[C@H](C(=O)N[C@@H](CCN)C(=O)N[C@H]1CCNC(=O)[C@H]([C@@H](C)O)NC(=O)[C@H](CCN)NC(=O)[C@H](CCN)NC(=O)[C@H](CC(C)C)NC(=O)[C@@H](Cc2ccccc2)NC(=O)[C@H](CCN)NC1=O)[C@@H](C)O [Polymyxin B] (X1-[Dab]T[Dab][Dab][Dab][dF]L[Dab][Dab]T; lactam 4-C; N-terminus assumed)
MIC S. aureus (S. aureus ATTC 6538): >32 µg/mL | MIC P. aeruginosa (P. aeruginosa ATTC 9027): 2 µg/mL (≈ 1.66 µM) | MIC E. coli (E. coli ATTC 8739): 1 µg/mL (≈ 0.831 µM) | MIC E. coli NDM-1 (E. coli; highly-resistant, New Delhi metallo-beta-lactamase gene): 0.5 µg/mL (≈ 0.415 µM) | MIC E. coli VAL 5 (E. coli; resistant to nalidixic acid): 0.25 µg/mL (≈ 0.208 µM) | MIC E. coli MAC 21a (E. coli; [7]): 0.25 µg/mL (≈ 0.208 µM) | MIC E. coli VAL 10 (E. coli; [7]): 0.25 µg/mL (≈ 0.208 µM) | MIC P. aeruginosa 38a (P. aeruginosa; resistant to ceftazidime, ciprofloxacin, imipenem, piperacillin-tazobactam): 1 µg/mL | MIC P. aeruginosa 40b (P. aeruginosa; resistant to imipenem): 2 µg/mL (≈ 1.66 µM) | % of stained cells PI (E. coli (ATCC 25922) [1]; 5 min): 11% | % of stained cells BOX (E. coli (ATCC 25922) [1]; 10 min): 35% | % of stained cells PI (E. coli (ATCC 25922) [1]; 10 min): 20% | % of stained cells BOX (E. coli (ATCC 25922) [1]; 15 min): 17% | % of stained cells PI (E. coli (ATCC 25922) [1]; 15 min): 60% | % of stained cells BOX (E. coli (ATCC 25922) [1]; 30 min): 13% | % of stained cells PI (E. coli (ATCC 25922) [1]; 30 min): 68% | % of stained cells BOX (E. coli (ATCC 25922) [1]; 60 min): 23% | % of stained cells PI (E. coli (ATCC 25922) [1]; 60 min): 57% | % of stained cells BOX (E. coli (ATCC 25922) [1]; 120 min): 17% | % viability reduction (E. coli (ATCC 25922) [2]; 5 min): 0% | % viability reduction (E. coli (ATCC 25922) [2]; 10 min): 20% | % viability reduction (E. coli (ATCC 25922) [2]; 15 min): 34% | % viability reduction (E. coli (ATCC 25922) [2]; 30 min): 65% | % viability reduction (E. coli (ATCC 25922) [2]; 60 min): 87% | % viability reduction (E. coli (ATCC 25922) [2]; 120 min): 98% | Effect on cell morphology (TEM) (E. coli (ATCC 25922) [3]): numerous protrusions were observed at the outer cell membrane and even some completely lysed membranes | LD50 reported for subcutaneous administration (CD-1 mice): 59.5 mg/kg | IC50 alternative NADH dehydrogenase [4]: 1.6 µg/mL (≈ 1.33 µM) | IC50 malate:quinone oxidoreductase [5]: 4.3 µg/mL (≈ 3.57 µM) | kidney concentration relative to serum concentration [6]: more than 30 times
